Results taken from patent publication US20190307820A1, “COMPOSITIONS AND METHODS OF USING STAT1/3 INHIBITORS WITH ONCOLYTIC HERPES VIRUS” (priority 2016, published 2019).
Read-outs that look alike come from different tables or passages of the source.

Assays:
SF126 cells = test: MTT cytotoxicity assay, SF126 cells; type: cell-based; settings: Homo sapiens, SF-126, 72 hours, read-out: Inhibitory concentration 50% (IC50)
Experimental: (§1) FIGS. 1A-1B are graphs that show an anti-tumor effect of nifuroxazide. (FIG. 1A) Cells were treated with indicated concentration of nifuroxazide for 72 hours. Cytotoxicity was measured by using MTT assay. (FIG. 1B) Subcutaneously U87 tumor bearing mice were peritoneally injected with indicated doses of nifuroxazide. Tumor size was measured using calipers at day 7 post nifuroxazide treatment.
(§2) In this example, the antitumor effect of nifuroxazide is evaluated in different tumor cells. Cells were treated with nifuroxazide for 72 hours (FIG. 1A). […] To verify the anti-tumor efficacy of nifuroxazide in vivo, animals with subcutaneous U87 tumor implants were injected in the peritoneum with vehicle, 1 mg/kg nifuroxazide and 50 mg/kg nifuroxazide. […] Tumor volume was reduced around 25% and 60% after 7 days treatment with 1 mg/kg nifuroxazide and 50 mg/kg nifuroxazide respectively (FIG. 1B).
(§3) Cells were seeded in a 96-well plate at a density of 1×104 (U87). After overnight incubation, cells were treated with only vehicle or indicated MOI of virus or indicated concentration of drugs or reagents. After 2 to 3 days of treatment cell viability was measured by MTT assay (Sigma, Canada) according to the manufacturer's instruction. […] After overnight incubation with lysis buffer, cell viability was measured at 595 nm using a plate reader (Envision 2103 Multilabel reader, Perkin Elmer).

U87 cells = test: MTT cytotoxicity assay, U87 cells; type: cell-based; settings: Homo sapiens, U-87 MG
Experimental: (FIG. 5A) U87 cells were treated with HrR3 at a MOI of 5 and indicated concentration of nifuroxazide for 6 hours. Extracted protein was then subjected to western blot assay. (FIG. 5B) U87 cells were treated with indicated concentration of HrR3 or nifuroxazide or stattic or in combination for 72 hours. Cytotoxicity was measured by MTT assay. (FIG. 5C) Relative mRNA level (2^−ΔΔCT) is shown. Data are presented as mean SD, *P<0.05 vs corresponding vehicle treatment.
Expression of key regulator of the Type1 interferon signaling, STAT1 and STAT3, was determined in nifuroxazide treated oHSV-1 infected U87 cells.

MCF7 cells = test: MTT cytotoxicity assay, MCF7 cells; type: cell-based; settings: Homo sapiens, 72 hours, read-out: Inhibitory concentration 50% (IC50)
Experimental: as §1, §2, §3

[1] = tested on: oHSV-1 (HrR3) in U87 cells; test: oHSV-1 (HrR3) replication in U87 cells, titrated in vero cells; type: cell-based, HSV-1; settings: HrR3 MOI-0.1, 48 hours
Experimental: (§4) FIGS. 2A-2B contain charts that show the effect of nifuroxazide on replication of oHSV-1. (FIG. 2A) Indicated cells were infected with HrR3 viruses at MOI-0.1. Viruses were harvested at 48 hours post-infected and titrated in vero cells. Data are presented as mean SD, *P<0.05 vs corresponding vehicle treatment. (FIG. 2B) U87 or glio cells were treated with HrR3 at a MOI of 1 and indicated concentration of nifuroxazide for 48 hours. Total DNA was extracted and subjected to qPCR to detect HSV-1 using ICP27 primer. nifuroxazide mediated oHSV-1% increase was represented in the figure.
(§5) In this example, the effect of nifuroxazide on oHSV-1 anti-tumor efficacy was evaluated. oHSV-1 infected treated glioma cells were incubated with low concentration of nifuroxazide. Replication increased 27- and 40-fold with 0.5 μM nifuroxazide and 10 μM nifuroxazide treated U87 cells respectively. Similarly, virus replication increased 0.8- and 4.7-fold virus in 9L cells treated with 0.5 μM nifuroxazide and 10 μM nifuroxazide respectively (FIG. 2A).

HrR3 in U87 glioma cells = test: PCR viral titer (ICP27 qPCR) of HrR3 in U87 glioma cells; type: cell-based, HSV-1; settings: HrR3 MOI of 1, 48 hours
Experimental: as §4, §5

ICP27 mRNA = test: RT-qPCR of ICP27 mRNA in HrR3 infected U87 cells; type: cell-based, HSV-1; settings: HrR3 MOI-5, 6 hours
Experimental: FIGS. 4A-4C show the effect of nifuroxazide on HSV-1 gene expression. (FIG. 4A) U87 cells were treated with HrR3 viruses at a MOI-3 and indicated doses of nifuroxazide. 24 hours post infected, total protein was extracted and subjected to western blot analysis. (FIG. 4B) U87 cells were treated with HrR3 at a MOI-5 and indicated concentration of nifuroxazide for 6 hours. ICP27 mRNA level was detected by RT-qPCR. (FIG. 4C) Relative mRNA level (2^−ΔΔCT) is shown. Data are presented as mean SD, *P<0.05 vs corresponding vehicle treatment.
In this example, the underlying mechanism of nifuroxazide mediated oHSV-1 replication enhancement was examined. The effect of nifuroxazide on viral immediate early gene, ICP27 and ICP4 expression was established by Western blot analysis.

pSTAT3 = molecular target: T1, pSTAT3 (Homo sapiens, UniProt P40763); test: Western blot of phosphorylated STAT3 in harvested U87 tumour tissues; type: in vivo, mice; settings: HrR3 with 50 mg/kg or 100 mg/kg NF i.p., day 10
T1 construct: from tissue; host or cells: subcutaneous U87 tumours harvested from mice
Experimental: FIGS. 19A-C show STAT inhibition by the combination of NF and oHSV-1. FIG. 19A and FIG. 19B, U87 cells (A) or CT26 cells (B) were treated with the indicated concentrations of HrR3 or NF or a combination. Total protein was extracted after 24 hours and subjected to western blot analysis. Band intensity was measured using Image J software and normalized to β-actin. Samples were run in triplicate and data are as means±S.E. Statistically significant differences are indicated by P<0.05 or P<0.01. FIG. 19C, Mice subcutaneously bearing U87 tumors were intratumorally injected with a single dose of HrR3 virus (1×10^6 PFU) and/or peritoneally injected doses of NF as indicated. Tumors were harvested on day 10 post treatment and total protein was extracted from a mouse of each treatment group and subjected to western blot analysis in triplicate. Results are reported as means±S.E.
To further confirm that NF is able to inhibit STAT activation in vivo, subcutaneously implanted U87 tumours were treated with either HrR3 alone or in combination with 50 mg/kg NF or 100 mg/kg NF. Expression levels of phosphorylated STAT1/3 in harvested tumour tissues were measured by western blotting.

T1 sequence (P40763 whole entry): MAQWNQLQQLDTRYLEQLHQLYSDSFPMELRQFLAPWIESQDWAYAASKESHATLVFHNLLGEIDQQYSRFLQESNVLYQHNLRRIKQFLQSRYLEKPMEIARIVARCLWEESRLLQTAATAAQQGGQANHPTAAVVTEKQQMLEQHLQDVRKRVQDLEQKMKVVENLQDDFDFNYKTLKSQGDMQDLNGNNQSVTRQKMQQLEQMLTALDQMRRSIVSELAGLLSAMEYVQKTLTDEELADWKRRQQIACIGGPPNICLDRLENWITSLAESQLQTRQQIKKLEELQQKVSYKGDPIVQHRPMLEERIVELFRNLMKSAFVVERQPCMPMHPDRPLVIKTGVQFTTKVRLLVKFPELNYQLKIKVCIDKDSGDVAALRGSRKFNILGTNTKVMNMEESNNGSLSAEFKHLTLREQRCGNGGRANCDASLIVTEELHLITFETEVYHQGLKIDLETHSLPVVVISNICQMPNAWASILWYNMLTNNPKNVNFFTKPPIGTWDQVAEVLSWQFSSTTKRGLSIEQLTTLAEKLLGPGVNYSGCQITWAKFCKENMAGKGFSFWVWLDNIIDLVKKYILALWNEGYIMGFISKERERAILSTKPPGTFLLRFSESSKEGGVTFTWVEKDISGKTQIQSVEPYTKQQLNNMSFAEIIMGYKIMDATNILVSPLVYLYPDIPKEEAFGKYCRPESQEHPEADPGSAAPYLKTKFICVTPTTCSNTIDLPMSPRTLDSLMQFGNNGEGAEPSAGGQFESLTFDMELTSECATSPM

SMILES: O=C(N/N=C/c1ccc([N+](=O)[O-])o1)c1ccc(O)cc1 [nifuroxazide, Benzoic acid, 4-hydroxy-, [(5-nitro-2-furanyl)metylene]hydrazide]
- IC50 (SF126 cells): ~20 µM
- IC50 (U87 cells; in combination with MOI of 1 HrR3, 72 hours, read-out: IC50, nifuroxazide dose in combination): ~4 µM
- IC50 (U87 cells; individual dose, 72 hours, MTT assay, read-out: Inhibitory concentration 50% (IC50)): ~20 µM
- IC50 (MCF7 cells): ~20 µM
- Replication increased ([1]; 0.5 μM nifuroxazide): 27 fold
- Replication increased ([1]; 10 μM nifuroxazide): 40 fold
- PCR viral titer (HrR3 in U87 glioma cells): dose dependent HrR3 replication enhancement
- ICP27 mRNA expression (ICP27 mRNA): up-regulation of ICP27 mRNA expression
- virally induced upregulation of pSTAT3 (pSTAT3): inhibited in a dose-dependent fashion
